The test addresses Csm6 (Mtb Csm6) (Mycobacterium tuberculosis, UniProt P71635).

The record followed here is PMC12214007, “CARF-dependent preferential RNA cleavage by Csm6 increases drug susceptibility of mycobacteria” (Nucleic Acids Research, 2025).

Chain of Csm6 (Mtb Csm6) (P71635 34-415): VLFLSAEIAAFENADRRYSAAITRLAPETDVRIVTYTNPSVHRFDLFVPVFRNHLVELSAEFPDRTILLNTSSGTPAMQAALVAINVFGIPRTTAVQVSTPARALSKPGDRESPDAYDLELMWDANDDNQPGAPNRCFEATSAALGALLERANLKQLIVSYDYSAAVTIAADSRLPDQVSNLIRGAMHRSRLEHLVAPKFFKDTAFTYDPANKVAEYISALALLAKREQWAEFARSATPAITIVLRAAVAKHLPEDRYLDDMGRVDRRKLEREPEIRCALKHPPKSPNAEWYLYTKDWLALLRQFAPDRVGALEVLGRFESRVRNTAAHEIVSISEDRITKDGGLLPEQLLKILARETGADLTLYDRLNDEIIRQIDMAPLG

Regarding `Nc1ncnc2c1ncn2[C@@H]1O[C@@H]2COP(=O)(O)O[C@H]3[C@@H](O)[C@H](n4cnc5c(N)ncnc54)O[C@@H]3COP(=O)(O)O[C@H]3[C@@H](O)[C@H](n4cnc5c(N)ncnc54)O[C@@H]3COP(=O)(O)O[C@H]3[C@@H](O)[C@H](n4cnc5c(N)ncnc54)O[C@@H]3COP(=O)(O)O[C@H]3[C@@H](O)[C@H](n4cnc5c(N)ncnc54)O[C@@H]3COP(=O)(O)O[C@H]3[C@@H](O)[C@H](n4cnc5c(N)ncnc54)O[C@@H]3COP(=O)(O)O[C@H]2[C@H]1O` [cA6, cyclic hexa-adenylate], the “gel-based cleavage assay of Cy5-labelled 24 nt ssRNA” value is recorded as “the presence of cA6 significantly enhances the nuclease activity of Csm6”.
